Experimental data reported in US4749703A, “Calcium antagonist piperazine derivatives, and compositions therefor” (Dainippon Pharmaceutical Co., Ltd., priority 1984, dated 1988).

Legend:
[1] = tested on: methacholine-induced ST elevation; assay: Preventive effect on methacholine-induced ST elevation (experimental model of variant angina); format: in vivo, Male SD strain rats; details: i.v.; for ST elevation, administn. of M (8 μg) after administn. of test compd. (at peak time): ± S.E.
Protocol: (2) Preventive effect on methacholine-induced ST elevation (effect in experimental model of variant angina)
The test was carried out according to the method of Sakai et al. [cf. J. Pharmacol. Methods, 5, 325-336 (1981)].
Male SD strain rats, weighing about 500 g, were anesthetized with 60 mg/kg (i.p.) of sodium pentobarbital. Lead II electrocardiogram was recorded. The ST elevation was produced with 8.0 μg of metacholine given into the coronary […] through the cannula inserted from the right carotid artery. The test compound, dissolved in 5% ethanol-physiological saline solution, was administered intravenously. The amplitude of ST elevation was measured by means of the computer 0.5, 5 and 10 minutes after the administration of the test compound and afterward at intervals of 10-minute. The effect of the test compound was evaluated by comparing the amplitude of ST elevation after administration of the test compound with that before the administration. Each group of 5 rats was used for each dose of the test compound.
The abbreviation M in the table represents metacholine.

[2] = tested on: spontaneously hypertensive rats (SHR); assay: Antihypertensive activity in spontaneously hypertensive rats (SHR); format: in vivo, male SHR (Okamoto and Aoki strain) rats; details: 30 mg/kg
Protocol: The animals used were male SHR [Okamoto and Aoki strain; cf. Jap. Circul. […] Proc. Soc. […] The other end of the cannula was exposed through the skin on the back of the neck and fixed. After 1 to 4 days, the aortic cannula was connected to a pressure transducer (produced by Nihon Koden Co., Ltd., Japan; Model MP-4T), and conscious blood pressure was measured by direct method. On the day of the experiment, the blood pressure was measured for one hour prior to dosing. The test compound, suspended in 0.5% aqueous tragacanth solution, was administered orally at a volume of 3.0 ml/kg and the blood pressure was measured continuously for 5 hours.
The changes of blood pressure are expressed by the mean pressure calculated from the values of systolic and diastolic pressure.

in vivo = details: mouse, mortality for 7 days
Text: STD-ddY strain mice were used in groups of 10 animals each.

[3] = tested on: vasopressin-induced ST depression; assay: Preventive effect on vasopressin-induced ST depression (experimental model of angina pectoris); format: in vivo, Male Donryu strain rats; parameters: key to Preventive effect on ST depression, 7 hours / Preventive effect on ST depression, 1 hour / Preventive effect on ST depression, 5 hours / Preventive effect on ST depression, 3 hours: +: Significantly different from vehicle control (P < 0.05); -: No significant difference; details: for Preventive effect on ST depression, 1 hour: 1 hour following administration; for Preventive effect on ST depression, 7 hours: 7 hours following administration
Protocol: (1) Preventive effect on vasopressin-induced ST depression (effect in experimental model of angina pectoris)
The test was carried out according to the method of Hatano et al. [cf. Pharmacometrics, 19, 311-317 (1980)].
Male Donryu strain rats, weighing 130-180 g, were anesthetized with 60 mg/kg (i.p.) of sodium pentobarbital. Lead II electrocardiogram was recorded. The ST depression produced with 0.2 IU/kg (i.v.) of vasopressin was recorded at intervals of a given period for 5 minutes after the administration of vasopressin. The test compound, suspended in 0.5% aqueous tragacanth solution, was administered orally 1, 3, 5 and 7 hours before the administration of vasopressin. The amplitude of ST depression was measured by means of the computer, and the data were analyzed statistically by two-dimensional analysis between the control group and the treated group to evaluate the effect of the test compound. Each group of 5 rats was used for each dose of the test compound.

Structure (SMILES): O=C(CCCN1CCN(c2ccc(F)cc2)CC1)NC1c2ccccc2CSc2ccccc21 (stereo not shown) [Example 1(3), 11-[4-[4-(4-fluorophenyl)-1-piperazinyl]butyrylamino]-6,11-dihydrodibenzo[b,e]thiepin]
- peak time (preventive effect on ST elevation) ([1]; 0.1 mg/kg): 0.5 min
- ST elevation, administn. of M (8 μg) after administn. of test compd. (at peak time) ([1]; 0.1 mg/kg, * P < 0.05): +0.14 ± 0.02 ΔmV
- peak time (preventive effect on ST elevation) ([1]; 0.3 mg/kg): 5 min
- ST elevation, administn. of M (8 μg) after administn. of test compd. (at peak time) ([1]; 0.3 mg/kg, * P < 0.05, ** P < 0.01): +0.09 ± 0.02 ΔmV
- peak time (preventive effect on ST elevation) ([1]; 1.0 mg/kg): 0.5 min
- ST elevation, administn. of M (8 μg) after administn. of test compd. (at peak time) ([1]; 1.0 mg/kg, ** P < 0.01): +0.09 ± 0.01 ΔmV
- preventive effect on the ST elevation (in words) ([1]; compared with diltiazem hydrochloride): preventive effect on the ST elevation comparable to that of diltiazem hydrochloride
- Peak time (time of maximum hypotensive effect) ([2]; p.o.): 5 h
- maximum hypotensive effect (decrease compared with the initial blood pressure) ([2]; oral): 12-14%
- time of maximum hypotensive effect ([2]; oral): 4 to 5 h
- LD50 at 168 h (in vivo; ip, single intraperitoneal administration): > 1000 mg/kg
- LD50 at 168 h (in vivo; single oral administration): > 4000 mg/kg
- Preventive effect on ST depression, 1 hour ([3]; 3 mg/kg p.o.): +
- Preventive effect on ST depression, 3 hours ([3]; 3 mg/kg p.o., 3 hours following administration): -
- Preventive effect on ST depression, 1 hour ([3]; 10 mg/kg p.o.): +
- Preventive effect on ST depression, 5 hours ([3]; 10 mg/kg p.o., 5 hours following administration): +
- Preventive effect on ST depression, 7 hours ([3]; 10 mg/kg p.o.): -
- Preventive effect on ST depression, 7 hours ([3]; 30 mg/kg p.o.): +
- preventive effect on the ST depression (in words) ([3]; p.o., compared with diltiazem hydrochloride): more prolonged preventive effect on the ST depression than diltiazem hydrochloride
